From article PMC4117758 (2014)

Tests used:
Assay in all cases: Job plot, absorption and fluorescence
Details in all cases: 150 mM KCl; 10 mM Tris-HCl pH 7.4, 1 mM Na2EDTA, 400 ml/l PEG 200; 5 μM total
[1] = tested on: Hum57 (DNA, G4) GGGTTAGGGTTAGGGTTAGGGTTAGGGTTAGGGTTAGGGTTAGGGTTAGGGTTAGGG
[2] = tested on: Hum63 (DNA, G4) GGGTTAGGGTTAGGGTTAGGGTTAGGGTTAGGGTTAGGGTTAGGGTTAGGGTTAGGGTTAGGG
[3] = tested on: Hum57-M3 (DNA, G4) GGGTTAGGGTTAGGGTTAGGGTTGAGTGTGAGTGTAGGGTTAGGGTTAGGGTTAGGG
[4] = tested on: Hum45 (DNA, G4) GGGTTAGGGTTAGGGTTAGGGTTAGGGTTAGGGTTAGGGTTAGGG
[5] = tested on: Hum51-M2 (DNA, G4) GGGTTAGGGTTAGGGTTAGGGTTGAGTGTAGGGTTAGGGTTAGGGTTAGGG
[6] = tested on: Hum57-M2 (DNA, G4) GGGTTAGGGTTAGGGTTAGGGTTGAGTGTAGGGTTAGGGTTAGGGTTAGGGTGTGAG
[7] = tested on: Hum69 (DNA, G4) GGGTTAGGGTTAGGGTTAGGGTTAGGGTTAGGGTTAGGGTTAGGGTTAGGGTTAGGGTTAGGGTTAGGG
[8] = tested on: Hum21 (DNA, G4) GGGTTAGGGTTAGGGTTAGGG
[9] = tested on: Hum57-M1 (DNA, G4) GGGTTAGGGTTAGGGTTAGGGTTAGGGTTAGGGTTAGGGTTAGGGTGTGAGTGTGAG
[10] = tested on: Hum51 (DNA, G4) GGGTTAGGGTTAGGGTTAGGGTTAGGGTTAGGGTTAGGGTTAGGGTTAGGG
[11] = tested on: Hum51-M1 (DNA, G4) GGGTTAGGGTTAGGGTTAGGGTTAGGGTTAGGGTTAGGGTTAGGGTGTGAG

binding [1]: yes | binding [2]: yes | binding [3]: yes | binding [4]: yes | binding [5]: yes | binding [6]: yes | binding [7]: yes | binding [8]: yes | binding [9]: yes | binding [10]: yes | binding [11]: yes
SMILES: C[N+]1(CCOc2ccc(-c3c4nc(c(-c5ccc(OCC[N+]6(C)CCCCC6)cc5)c5ccc([nH]5)c(-c5ccc(OCC[N+]6(C)CCCCC6)cc5)c5nc(c(-c6ccc(OCC[N+]7(C)CCCCC7)cc6)c6ccc3[nH]6)C=C5)C=C4)cc2)CCCCC1
